{"source": "patent US20250144049A1", "about": "“METHODS, COMPOSITIONS, AND USES RELATED TO THE TREATMENT AND PREVENTION OF LEIGH SYNDROME” (Stealth BioTherapeutics Inc., priority 2023, published 2025)", "key": {"[1]": {"tested_on": "rotenone-inhibited Complex I", "test": "Complex I-bypass assay (high-resolution respirometry, O2 consumption)", "assay_type": "cell-based, human", "experimental": "All high-resolution respirometry experiments were conducted using the Oroboros O2k-Fluorespirometer (Oroboros, Innsbruck, Austria). The Oroboros O2k-Fluorespirometer was calibrated daily using the air calibration protocol on DatLab 7.4 (Oroboros, Innsbruck, Austria). Prior to each experiment requiring the fluorescence module, the AmpR calibration protocol from DatLab 7.4 was used to calibrate the fluorescence signal. Initial data analysis, including setting of marks, was performed using DatLab 7.4.\nComplex I-bypass activity was assessed using HRR to measure O2 consumption. […] Values were exported and analyzed using GraphPad Prism 9. […]\nStatistical analysis was performed using GraphPad Prism 9. […] RET Assay data were analyzed by 2-way ANOVA using a p-value of 0.05.\nUsing this assay, the ability of Compounds 1 to 4 and Vatiquinone to bypass rotenone-inhibited Complex I was determined. […] The ability of Compounds 1 to 4 and Vatiquinone to “bypass” Complex I and restore OXPHOS is measured by an increase in oxygen consumption rate following addition of the compound to the chamber.\nIn executing this assay, in each instance, fibroblasts are added to each chamber of the Oroboros Oxygraph-2K (the “O2k”). […] The addition of rotenone is expected to cause a marked reduction of OXPHOS as measured by a decreased rate of oxygen consumption. […]"}, "[2]": {"tested_on": "Healthy (GM08402) fibroblasts", "test": "RSL3 cytoprotection assay, healthy fibroblasts", "assay_type": "cell-based, human", "experimental": "(§1) Patient fibroblasts were acquired from Coriell Institute for Medical Research (Camden, NJ, USA). GM03672 is an untransformed fibroblast cell line from a Leigh syndrome patient carrying an unknown mutation. GM08402 is an untransformed fibroblast from an apparently healthy individual. Cells were cultured at 37° C. at 5% CO2 in Eagle's Minimum Essential Medium (MEM, Corning), which was supplemented with Earle's salts and non-essential amino acids, 15% qualified fetal bovine serum, and 1% penicillin/streptomycin ([…]) to yield “Complete MEM.”\n(§2) To initiate the RSL3 cytoprotection experiment, Healthy (GM08402) and Leigh syndrome (GM03672) fibroblasts were resuspended in Complete MEM. Cells were seeded at 10,000 cells per well in a clear, tissue cultured-treated, 96-well plate and incubated at 37° C. overnight. Following the incubation, supernatant was manually aspirated, taking care not to disrupt cells. […]. Luminescence units were quantified by GEN5 software on a BioTek SYNERGY neo2 plate reader (LUM filter).\n(§3) RSL3 is an inhibitor of the enzyme glutathione peroxidase 4 (GPX4), which decreases lipid peroxides. RSL3 inhibition of GPX4 induces ferroptosis through iron-dependent accumulation of lipid ROS. In this assay, Healthy or Leigh fibroblasts were treated for 4 hours with RSL3 to induce ferroptosis or left untreated. Endogenous ATP levels were measured as an indicator of cellular viability using a commercially available kit (CellTiter-Glo® 2.0 Cell Viability Assay (Promega)).\n(§4) […]. […] Briefly, ferroptosis was induced with 1 μM RSL3 in healthy fibroblast cells and 375 nM RSL3 in fibroblasts from a patient with Leigh syndrome.\n(§5) A preliminary experiment was performed to determine the effect of RSL3 injury on the fibroblasts of a healthy individual (cell line: GM08402) and the fibroblasts of a patient diagnosed with Leigh syndrome (cell line: GM03672)."}, "[3]": {"tested_on": "Leigh syndrome (GM03672) fibroblasts", "test": "RSL3 cytoprotection assay, Leigh fibroblasts", "assay_type": "cell-based, human", "details": "for anti-ferroptosis properties compared among test articles: RSL3, 4 hours", "experimental": "as §1, §2, §3, §4, §5"}, "15-lipoxygenase (15-LO) [4]": {"tested_on": "15-lipoxygenase (15-LO)", "test": "15(S)-HETE ELISA following RSL3 treatment, Leigh fibroblasts", "assay_type": "cell-based, human", "details": "700 nM RSL3, 1 μM compound, FIG. 11", "experimental": "(§6) Samples for the 15(S)-HETE ELISA were generated by the RSL3 cytoprotection assay described above. Healthy or Leigh fibroblasts were resuspended in assay medium, seeded at 200,000 cells per well in a clear, tissue culture-treated, 24-well plate. Cells were incubated at 37° C. for 24 hours. Supernatant was aspirated from each well following the incubation.\n(§7) Fibroblasts from both a healthy individual and a patient diagnosed with Leigh syndrome were examined (but not all compounds were examined in each cell type). Activation of ferroptosis has been implicated as a driver of epilepsy, which is commonly associated with Leigh syndrome. […] Kahn-Kirby et al. PLOS One. […] As a key regulator of ferroptosis, 15-LO serves as a rational therapeutic target in Leigh syndrome."}, "[5]": {"tested_on": "Healthy (GM08402) fibroblasts", "test": "Erastin cytoprotection assay, healthy fibroblasts", "assay_type": "cell-based, human", "details": "24 hours; for protective effect compared among test articles: 2 μM erastin, FIG. 12", "experimental": "(§8) Briefly, Healthy (GM08402) or Leigh (GM03672) fibroblasts were resuspended in assay medium, seeded at 10,000 cells per well in a clear, tissue cultured-treated, 96-well plate, and incubated at 37° C. overnight. Following the incubation, supernatant was manually aspirated from wells, taking care not to disrupt cells. Fibroblasts were co-treated in a final volume of 100 μL with 2 μM erastin (Millipore Corp., Cat #), 250 μM ferric ammonium citrate (FAC), 50 µM ascorbic acid (AA), and a titration of one of each of Compounds 1 to 4 or Vatiquinone ranging from 10 to 1000 nM. Following another 24-hour incubation at 37° C., cell viability was measured using the CellTiter-Glo Luminescent Cell Viability Kit (ProMega) per Manufacturer's instructions. Luminescence units were quantified by GEN5 software on a BioTek SYNERGY neo2 plate reader (LUM filter).\n(§9) Briefly, erastin, like RSL3, is known to induce ferroptosis. […] Erastin was incubated with cell fibroblasts for 24 hours to induce ferroptosis. Cells were co-treated with each of Compounds 1 to 4, or Vatiquinone as the test articles. Test articles were administered at a range of concentrations to derive a curve. Cell viability was determined using a commercially available kit that measures ATP production. […] An increase in cell viability as determined by the assay is considered to be protective against ferroptosis."}, "[6]": {"tested_on": "Leigh (GM03672) fibroblasts", "test": "Erastin cytoprotection assay, Leigh fibroblasts", "assay_type": "cell-based, human", "details": "24 hours; for protective effect compared among test articles: 2 μM erastin, FIG. 13", "experimental": "as §8, §9"}, "15-lipoxygenase (15-LO) [7]": {"tested_on": "15-lipoxygenase (15-LO)", "test": "15(S)-HETE ELISA following RSL3 treatment, healthy fibroblasts", "assay_type": "cell-based, human", "details": "700 nM RSL3, 1 μM compound, FIG. 10", "experimental": "as §6, §7"}, "15-lipoxygenase (15-LO) [8]": {"tested_on": "15-lipoxygenase (15-LO)", "test": "15(S)-HETE ELISA following erastin treatment, healthy fibroblasts", "assay_type": "cell-based, human", "details": "erastin + FAC + AA, FIG. 14", "experimental": "(§10) Samples for the 15(S)-HETE ELISA were generated by the Erastin Assay described above. Healthy or Leigh fibroblasts were resuspended in assay medium, seeded at 200,000 cells/well in a clear, tissue culture-treated, 24-well plate, and incubated at 37° C. for 24 hours. Supernatant was aspirated from each well.\n(§11) Ferroptosis was induced using erastin at 2 μM concentration. 15(S)-HETE, which is a metabolite of arachidonic acid and generated by activity of 15-LO, was measured using a commercially available ELISA kit. Data were normalized to the “No treatment” group, which represented fibroblasts that were not injured with erastin."}, "15-lipoxygenase (15-LO) [9]": {"tested_on": "15-lipoxygenase (15-LO)", "test": "15(S)-HETE ELISA following erastin treatment, Leigh fibroblasts", "assay_type": "cell-based, human", "details": "erastin + FAC + AA, FIG. 15", "experimental": "as §10, §11"}, "[10]": {"test": "Pharmacokinetics of Compound 2 after single intravenous, subcutaneous or oral administration", "assay_type": "in vivo", "details": "rat, 1 mg/kg IV, 10 mg/kg SC, 10 mg/kg PO", "experimental": "• Animals: Rat/Sprague Dawley/Male/Naive 225-250 grams were received from an approved vendor. • Animals were fasted overnight prior to dose administration. Food was returned following the 2 hour sample collection. • Body weights were recorded prior to dose administration. The volume of each dose delivered (ml/kg) was based on each individual animal's body weight. • This was a single dose, serial blood collection study with tissues collected for possible future analysis. • Doses were administered in accordance with test facility standard operating procedures. […].\nb) Sample collection—Post Dosing: • Blood samples were collected via jugular vein catheter (JVC) and transferred to tubes with appropriate anticoagulant. The tubes were stored on wet ice until processed to plasma by centrifugation (3500 rpm at 5° C. for 10 minutes) within 20 minutes of collection. Sample aliquots of 100 μL were transferred into individual uniquely labeled matrix tubes containing 10 μL of 5% (v/v) formic acid aqueous solution and stored at nominal −80° C. until analyzed by LC/MS/MS. • Immediately following final serial blood collection (24 hours, JVC), animals were sacrificed and perfused with cold PBS. […]"}, "[11]": {"details": "tested in the clinic; cited from earlier work"}, "[12]": {"details": "pontocerebellar hypoplasia type 6, Kahn-Kirby et al.; cited from earlier work"}, "[13]": {"details": "2 μM erastin + FAC + AA, compound 10-1000 nM"}}, "data": [{"smiles": "COC1=C(OC)C(=O)C(CCCCCCCCCC(F)(F)F)=C(C)C1=O", "note": "[Compound 1]", "values": [{"measurement": "oxygen consumption rate after rotenone inhibition", "setting": "[1]; titrated into rotenone-inhibited Leigh fibroblasts, n=6", "result": "restored oxygen consumption rate in a dose-dependent manner"}, {"measurement": "anti-ferroptosis properties compared among test articles", "setting": "[2]; 1 μM RSL3, 4 hours, FIG. 8", "result": "roughly equivalent"}, {"measurement": "anti-ferroptosis properties compared among test articles", "setting": "[3]; FIG. 9", "result": "roughly equivalent"}, {"measurement": "15-LO inhibition compared among test articles", "setting": "15-lipoxygenase (15-LO) [4]", "result": "superior to Compounds 2, 3 and 4"}, {"measurement": "protective effect compared among test articles", "setting": "[5]", "result": "about equally protective"}, {"measurement": "protective effect compared among test articles", "setting": "[6]", "result": "about equally protective"}]}, {"smiles": "CC1=C(C)C(=O)C(CC[C@@](C)(O)CC/C=C(\\C)CCC=C(F)F)=C(C)C1=O", "note": "[Compound 2]", "values": [{"measurement": "anti-ferroptosis properties compared among test articles", "setting": "[2]; 1 μM RSL3, 4 hours, FIG. 8", "result": "superior to Compounds 1, 4 and Vatiquinone"}, {"measurement": "anti-ferroptosis properties compared among test articles", "setting": "[3]; FIG. 9", "result": "superior to Compounds 1, 4 and Vatiquinone"}, {"measurement": "inhibition of 15-lipoxygenase (15(S)-HETE in supernatant)", "setting": "15-lipoxygenase (15-LO) [7]; 24 hours", "result": "inhibited 15-lipoxygenase"}, {"measurement": "15-lipoxygenase inhibition compared among test articles", "setting": "15-lipoxygenase (15-LO) [7]", "result": "roughly equivalent protective effect"}, {"measurement": "15-LO inhibition compared among test articles", "setting": "15-lipoxygenase (15-LO) [4]", "result": "roughly equivalent protective effect"}, {"measurement": "protective effect compared among test articles", "setting": "[5]", "result": "superior in their protective effect"}, {"measurement": "protective effect compared among test articles", "setting": "[6]", "result": "superior in their protective effect"}, {"measurement": "15-LO inhibition compared among test articles", "setting": "15-lipoxygenase (15-LO) [8]", "result": "slightly less effective"}, {"measurement": "15-LO inhibition compared among test articles", "setting": "15-lipoxygenase (15-LO) [9]", "result": "slightly less effective"}, {"measurement": "tolerability", "setting": "[10]", "result": "well tolerated"}, {"measurement": "delivery by mode of administration", "setting": "[10]; preliminary", "result": "effectively administered"}]}, {"smiles": "COC(=O)c1ccc([C@H]2c3[nH]c4ccccc4c3C[C@H](C(=O)OC)N2C(=O)CCl)cc1", "note": "[RSL3, (1S,3R)-Methyl 2-(2-chloroacetyl)-2,3,4,9-tetrahydro-1-[4-(methoxycarbonyl)phenyl]-1H-pyrido[3,4-b]indole-3-carboxylate, reference compound]", "values": [{"measurement": "concentration sufficient for 25-30% killing of cells", "setting": "[2]; healthy fibroblasts, FIG. 7", "result": 1, "unit": "µM"}, {"measurement": "concentration sufficient for 25-30% killing of cells", "setting": "[3]; Leigh fibroblasts, FIG. 7", "result": 700, "unit": "nM"}]}, {"smiles": "CC(C)=CCC/C(C)=C/CC/C(C)=C/CC[C@@](C)(O)CCC1=C(C)C(=O)C(C)=C(C)C1=O", "note": "[Vatiquinone, reference compound]", "values": [{"measurement": "Complex I by-pass activity", "setting": "[1]; concentrations from 125 nM to 8 μM", "result": "inactive"}, {"measurement": "anti-ferroptosis properties compared among test articles", "setting": "[2]; 1 μM RSL3, 4 hours, FIG. 8", "result": "roughly equivalent"}, {"measurement": "protective effect against RSL3 induced ferroptosis (cell viability, ATP)", "setting": "[2]; 1 μM RSL3, 4 hours, compound 10-1000 nM, FIG. 8", "result": "protective effect"}, {"measurement": "protective effect against RSL3 induced ferroptosis (cell viability, ATP)", "setting": "[3]; 375 nM RSL3, 4 hours, compound 10-1000 nM, FIG. 9", "result": "protective effect"}, {"measurement": "anti-ferroptosis properties compared among test articles", "setting": "[3]; FIG. 9", "result": "roughly equivalent"}, {"measurement": "protective effect against erastin induced ferroptosis (cell viability, ATP)", "setting": "[5]; [13]", "result": "protective effect"}, {"measurement": "protective effect compared among test articles", "setting": "[5]", "result": "about equally protective"}, {"measurement": "protective effect against erastin induced ferroptosis (cell viability, ATP)", "setting": "[6]; [13]", "result": "protective effect"}, {"measurement": "protective effect compared among test articles", "setting": "[6]", "result": "superior in its protective effect as compared with Compounds 1 and 4"}, {"measurement": "clinical results in Leigh syndrome", "setting": "[11]", "result": "disappointing"}, {"measurement": "seizure frequency and morbidity", "setting": "[12]", "result": "decrease seizure frequency and morbidity"}]}]}
